“Also recorded” adds a separate entry of the source.
Tests used:
[1] = system: Fmr1 KO mice; experiment: Three-Chamber Social Interaction Test (TCSIT); type: in vivo, mouse
Protocol: (§1) Methods. The study was conducted in 10-week-old male Fmr1 KO mice. Animals were dosed per os with vehicle, R(−)-MDMA (8, 17 and 30 mg/kg) or SR-MDMA (8 mg/kg) with a minimum 3-day washout between doses. […] Compounds were administered 30 minutes prior to each behavioral test. Basic statistical analysis was performed. If more than 2 groups were compared with each other, significance was calculated by One-way or Two-way analysis of variance (ANOVA) followed by the Bonferroni post hoc test. In case of non-normally distributed data, significance was calculated by Kruskal-Wallis test followed by Dunn's multiple comparisons test.
To measure sociability, animals were tested in the Three Chamber Social Interaction Test. It consisted of a habituation phase, an approach phase and a recognition phase (FIG. 5).
On the testing day, the test animal was placed in the center of the box and was allowed to explore it for ten minutes with two empty stranger mouse cylinders on each side of the box for habituation.
Social approach: After habituation, the mouse was removed from the box, the box was cleaned with 70% Isopropanol and dried with a hand fan. A sex-matched stranger mouse was placed into the mouse cylinder in the left chamber and the test animal was placed in the center of the box again for ten minutes.
Social recognition: After the social approach, mice were immediately tested for social recognition. The already known mouse stayed in the left chamber and a new mouse was placed under the cylinder in the right chamber. The test mouse was again placed in the middle chamber and, for 10 minutes, it was measured how much time it spent in each chamber and how much time it spent sniffing each mouse. Healthy mice will spend more time with the new mouse due to novelty. Socially disturbed mice might not recognize the already known mouse and spend therefore similar amounts of time with each mouse.
Both social approach and social recognition were recorded and analyzed by using Noldus Ethovision 8.5.
(§2) Methods. The study was conducted in 96 10-week-old male Fmr1 KO mice. Animals were dosed orally with vehicle, R(−)-3,4-MDMA (8, 17 and 30 mg/kg), S-(+)-3,4-MDMA (8 mg/kg) or (±)-3,4-MDMA (8 mg/kg) with a minimum 3-day washout between doses. In the Three-Chamber Social Interaction Test (TCSIT), a stranger animal was placed in one of two wire cylinders in the testing area. The time spent in each of three arenas: the neutral arena, the stranger arena or the empty arena, was assessed (FIG. 5). Animals were evaluated in the Open Field Test (OFT) measuring hyperactivity, locomotor activity, thigmotaxis and grooming duration (FIGS. 7A-7B). In the Ultrasonic Vocalization (USV) test, male mice were exposed to fresh urine from females in the estrous cycle. Vocal emissions were recorded for 5 minutes and analyzed. Compounds were administered 30 minutes before each behavioral test. Significance was calculated by One-way analysis of variance followed by the Bonferroni post hoc test. In non-normally distributed data, Kruskal-Wallis test followed by Dunn's multiple comparisons test was applied.

[2] = system: Fmr1 KO mice; experiment: Ultrasonic Vocalization (USV) test; type: in vivo, mouse; conditions: any dose, oral, 5 minutes recording, P<0.001
Protocol: as §1
Adult male mice emit Ultrasonic Vocalization (USV) under selected experimental conditions, upon encountering a sexually receptive female or female urine. These vocal emissions are considered an index of emotionality, social interest, and motivation.
To induce the estrous cycle in female mice, mice were subcutaneously treated with 50 μl of ß-estradiol 48 hours prior to testing (time sensitive). […]
On the test day, study animals were habituated in a separate soundproof room. Before recording, each mouse was separated from its home cage, placed in another cage that was covered with fresh bedding, and moved to the next soundproof room equipped with an UltraSoundGate Condenser Microphone (CM16; Avisoft Bioacoustics, Berlin, Germany), connected via an Avisoft UltraSoundGate 416 USB Audio device (Avisoft Bioacoustics) to a personal computer, where acoustic data were recorded with a sampling rate of 250,000 Hz in 16-bit format. […] Vocal emission was recorded for 5 minutes.
For acoustical analysis, recordings were transferred to SASLab Pro (Avisoft Bioacoustics) and a fast Fourier transform was conducted (512 FFT length, 100% frame, Hamming window, and 75% time window overlap). […] The total number of vocalizations and the latency to initiate the first call were extracted and evaluated for the whole 5 minutes of recording.
Methods. […] The time spent in each of three arenas: the neutral arena, the stranger arena or the empty arena, was assessed (FIG. 5). […]

[3] = system: Fmr1 KO mice; experiment: Open Field Test (OFT) including grooming evaluation; type: in vivo, mouse
Protocol: as §1
Spontaneous activity and anxiety was assessed in the Open Field by evaluating the following parameters: hyperactivity [s], activity [s], distance [m], rearings [s], rearings [n] and grooming behavior. For that purpose, a Plexiglas Open Field (48×48 cm) in combination with a computerized video tracking system (Noldus Ethovision XT 14) was used (FIGS. 7A-7B).
The mice were brought to the room at least 45 minutes before the start of the testing. Each test session lasted for 5 minutes to check the mice's behavior in the new surroundings, as the first minutes of the Open Field test are the most suitable to display the exploration behavior of the animals. After the testing session, the number of fecal boluses was counted, as a measure of emotionality. The Open Field was cleaned with 70% Isopropanol after each mouse to get rid of odor traces. Testing was performed under standard room lighting conditions during the light phase of the circadian cycle.
as §2

[4] = system: dopamine; conditions: background, receptor studies and limited pre-clinical evidence; cited from earlier work
[5] = background, limited pre-clinical evidence; cited from earlier work
[6] = oral, 30 minutes before test, R compared to S or racemate P<0.001

Row | SMILES | Arena Frequency with the stranger ([1]; 8 mg/kg oral) | Interaction Duration with the stranger ([1]; 8 mg/kg oral) | Interaction Index with the stranger ([1]; 8 mg/kg oral) | interaction with the stranger and empty chamber vs. vehicle-treated animals ([1]; 8 mg/kg oral) | number of vocalizations [2] | Arena Frequency with the stranger ([1]; 30 mg/kg oral, P<0.001) | interaction with the stranger and empty chamber vs. vehicle-treated animals ([1]; all three doses (8, 17 and 30 mg/kg) oral, P<0.01) | effect on social interaction compared with S-(+)-3,4-MDMA or (±)-3,4-MDMA ([1]; conclusion of the study) | social approach and interaction ([1]; male Fmr1 KO mice, oral 8, 17 and 30 mg/kg, 30 minutes before test) | number of grooming occasions ([3]; 30 mg/kg oral) | distance moved [3, 6] | hyperactivity [3, 6] | number of grooming occasions ([3]; oral, R 8, 17, 30 mg/kg, S and racemate 8 mg/kg) | efficacy as a releaser of dopamine [4] | hyperthermia [5]
1 | CNC(C)Cc1ccc2c(c1)OCO2 (racemic) [(±)-3,4-MDMA, S,R(±)-3,4-methylenedioxymethamphetamine] | no effect | no effect | no effect | efficacious only for interaction with the stranger | significantly reduced | – | – | – | – | – | – | – | – | – | –
2 | CN[C@H](C)Cc1ccc2c(c1)OCO2 [R(−)-3,4-MDMA, R(−)-3,4-methylenedioxymethamphetamine] | – | – | – | – | significantly reduced | statistically significant | significant difference | more potent | dose-dependently increased | active | significantly lesser effect | significantly lesser effect; also recorded: significantly reduced hyperactivity effects | less efficacious than S-(+)-3,4-MDMA or (±)-3,4-MDMA | low efficacy | does not produce hyperthermia
3 | CN[C@@H](C)Cc1ccc2c(c1)OCO2 [S-(+)-3,4-MDMA] | no effect | no effect | no effect | not associated with significant changes | significantly reduced | – | – | – | – | – | – | – | – | – | –

Source: US20230310368A1, “MDMA ENANTIOMERS” (Mind Medicine, Inc., priority 2021, published 2023)
